Results as given in patent US9664696B1, “Compounds for determining the presence of hydrogen sulfide and methods of use” (University of Oregon, priority 2013, dated 2017).

Key:
[1] = Chemiluminescent H2S detection limit (HRP/H2O2/p-iodophenol); conditions: for chemiluminescent response after H2S-mediated reduction: followed by treatment with HRP and H2O2; for chemiluminescence in the absence of H2S: treatment with HRP and H2O2, by comparison to luminol or isoluminol
Experimental: (§1) In a septum-sealed cuvette, a solution of the compound (50 μM) and the desired reactive species was incubated in PIPES buffer (50 mM PIPES, 100 mM KCl, pH 7.4) for 60 minutes at 37.0° C. After incubation, 40 μL of 6 M NaOH was added to increase the pH to an optimal level for luminol chemiluminescence. After pH adjustment, 10 μL of 10 U/mL Horseradish Peroxidase (HRP) with 0.2 μM p-iodophenol was added. A background reading was acquired for 60 seconds, after which 50 μL of H2O2 (35%) was added. The sample luminosity at 425 nm was integrated for 300 s after H2O2 addition. The data reported are the average of at least three independent experiments.
In this particular embodiment, the use of a compound for a chemiluminescent testing method is disclosed.
Following the H2S-derived chemiluminescent response of both chemiluminescent compound precursor 200 and chemiluminescent compound precursor 202, the detection limit of each chemiluminescent compound precursor for H2S was determined. After incubating each chemiluminescent compound precursor for 1 hour for different H2S concentrations, the chemiluminescent response was measured after treatment with H2O2/HRP using p-iodophenol as an enhancer. […] Based on the concentration-dependent H2S response and the instrumental background measurements, the H2S detection limit (3σ) of chemiluminescent compound precursor 200 and chemiluminescent compound precursor 202 was determined to be 0.7±0.3 μM and 4.6±2.0 μM, respectively. Although the total brightness of chemiluminescent compound precursor 202 was lower than that of compound 200, both these detection limits were below the reported range of H2S concentrations (20 μM-100 μM) found in mammalian blood.

[2] = Chemiluminescence selectivity for H2S over reactive sulfur, oxygen, and nitrogen species (RSONS); conditions: for turn on for H2S: chemiluminescence, H2S versus blank
Experimental: as §1
The response of chemiluminescent compound precursor 200 and chemiluminescent compound precursor 202 to biologically-relevant reactive sulfur, oxygen, and nitrogen species (RSONS) was also determined. The selectivity of chemiluminescent compound precursor 200 for H2S was determined by adding 33 equivalents of cysteine (Cys), homocysteine (Hcy), N-acetylcysteine (NAC), reduced glutathione (GSH), thiosulfate (S2O3^2−), sulfate (SO4^2−), nitric oxide (NO), nitroxyl (HNO), and nitrite (NO2^−) (FIGS. 10 and 11). […]

[3] = 1H NMR titration, 1:1 binding model, TBA-Ser; conditions: 10.0 mM probe, 0-200 mM amino acid, DMSO-d6, 25.0° C., average of three titrations
Experimental: (§2) A septum-sealed NMR tube was charged with either chemiluminescent compound precursor 200 or 202 (10 mM in 300 μL of DMSO-d6) and aliquots of a DMSO-d6 solution containing 200 mM amino acid mixed with 10 mM of the compound were added using a syringe. The chemical shifts of the aromatic proton resonances were tracked and the data were fitted to a 1:1 binding model.
In addition to computational evidence for the hydrogen-bonding hypothesis, NMR titrations of chemiluminescent compound precursors 200 and 202 were also performed with different amino acids to further validate the model with solution data. Serine was used as a model amino acid because cysteine quickly reduces chemiluminescent compound precursor 200 under typical experimental conditions. […] Similarly, to model the protonation state of the amino acids in water, and also to ensure complete solubility through the course of the titration, the tetrabutylammonium salts of each amino acid were prepared. By titrating tetrabutylammonium serine (TBA-Ser) into independent solutions of chemiluminescent compound precursors 200 and 202, striking changes in the aromatic region of the NMR spectra were observed, consistent with amino acid binding to the hydrazide moiety (FIGS. 34A-34C). […]

[4] = biological target: cystathionine γ-lyase (CSE) (Homo sapiens, UniProt P32929); test: Detection of enzymatically produced H2S from isolated CSE; type: biochemical
Experimental: (§3) In a septum sealed cuvette, the desired reactive species were incubated in PIPES buffer (50 mM PIPES, 100 mM KCl, pH 7.4) at 37.0° C. for 48 hours. After initial incubation, 15 μL of 10 mM chemiluminescent compound precursor 202 in DMSO was added, and allowed to react for 60 min. After incubation, 40 μL of 6 M NaOH was added to increase the pH to an optimal level for luminol chemiluminescence. After pH adjustment, 10 μL of 10 U/mL Horse-radish Peroxidase (HRP) with 0.2 μM p-iodophenol was added. A background reading was acquired for 60 s, after which 50 μL of H2O2 (35%) was added. The sample luminosity at 425 nm was integrated for 40 s after H2O2 addition. The data reported are the average of at least three independent experiments.
CSE is a PLP-dependent enzyme that converts Hcy or Cys to H2S and can be inhibited by β-cyano-L-alanine (BCA).

[5] = 1H NMR titration, 1:1 binding model, TBA-Val; conditions: 10.0 mM probe, 0-200 mM amino acid, DMSO-d6, 25.0° C., average of three titrations
Experimental: as §2
^1H NMR titrations with tetrabutylammonium valine (TBA-Val) were also performed as a second model system in which the side chain of the amino acid cannot hydrogen bond to the azide. […] The binding affinities measured for TBA-Val are larger than for TBA-Ser (Table 9), which is consistent with the reduced internal competition for intramolecular hydrogen bonding sites in valine. Based on these titration data, and the lower hydrogen bonding ability of thiols by comparison to alcohols, binding affinity of cysteine for chemiluminescent compound precursor 200 and 202 was expected to be between the measured values for serine and valine. Under the general experimental conditions used to measure the selectivity date, a 10^3-10^4 M^−1 binding affinity between Cys/chemiluminescent compound precursor 200 would result in significant generation of the Cys/chemiluminescent compound precursor 200 adduct, which is consistent with the observed erosion in selectivity. […]

[6] = Air sensitivity of the chemiluminescent compound precursors; type: physicochemical
C6 cells = test: Detection of endogenously produced H2S in C6 cell lysates; type: cell-based
Experimental: as §3
C6 cells were obtained from ATCC and cultured in Dulbecco's Modified Eagle Medium (DMEM, Cellgro, MediaTek, Inc.) supplemented with 10% fetal bovine serum (FBS, HyClone), and 1% penicillin/streptomycin. Cells were passed and plated into T-75 flasks containing 10 mL of DMEM, and incubated at 37° C. with 5% CO2. For luminescence studies, the cells were washed with 1× phosphate buffered saline (PBS), trypsinized with 5 mL of Trypsin, and then centrifuged to form a cell pellet. The cell pellet was resuspended in 5 mL of 1×PBS and the cells were counted using a Bio RAD TC20 automated cell counter. Cells were centrifuged at 1,000 RPM for 5 minutes at room temperature, placed on ice and lysed using 100 μL of RIPA buffer (pH 7.5 10 mM Tris-HCl, 150 mM NaCl, 1.0% Nonidet P-40, 0.1% SDS, 0.1% sodium deoxycholate) containing protease inhibitor (PhosSTOP, Roche) for every 2×10^6 cells in the pellet. Luminescence measurements on cell lysates were made using 100 μL of lysate solution (2×10^6 cells per experiment) under ambient atmosphere by following the general procedure for enzymatically produced H2S outlined above.
The ability of chemiluminescent compound precursor 202 to detect and quantify endogenously-produced H2S in C6 cells was determined.

[7] = pH titration of compound 42 monitored by UV-vis; type: physicochemical; conditions: aqueous 100 mM KCl / 10 mM KOH solution titrated with HCl; absorbance at 534 nm as a function of pH; read-out: apparent pKa of the thiol
Experimental: A 15 mL solution of compound 42 (111 μM) in 100 mM KCl and 10 mM KOH Millipore water was prepared. The pH of the solution was adjusted with 10 M, 5 M, 1 M, 50 mM, or 1 mM solutions of HCl and the pH recorded. At each pH value, an aliquot of the solution was transferred to a cuvette and the UV-vis spectrum was measured. After measurement, the aliquot was returned to the stock solution and the pH was adjusted to the next point in the titration.

[8] = UV-vis titration of 100 with NaSH, absorbance of products; type: physicochemical; parameters: ε413: unit not given here; conditions: PIPES buffer pH 7.4
[9] = Colorimetric selectivity studies, H2S versus amino acids and RSONS
[10] = pH 7.4
[11] = Reactant 2-mercaptoethanol (2-ME)
[12] = Reactant H2S, 33 equivalents, 50 μM compound, 60 min, 37.0° C., pH 7.4
[13] = 30 equivalents of H2S then added, 45 min

cystathionine γ-lyase (CSE), sequence (P32929 whole entry, species assumed): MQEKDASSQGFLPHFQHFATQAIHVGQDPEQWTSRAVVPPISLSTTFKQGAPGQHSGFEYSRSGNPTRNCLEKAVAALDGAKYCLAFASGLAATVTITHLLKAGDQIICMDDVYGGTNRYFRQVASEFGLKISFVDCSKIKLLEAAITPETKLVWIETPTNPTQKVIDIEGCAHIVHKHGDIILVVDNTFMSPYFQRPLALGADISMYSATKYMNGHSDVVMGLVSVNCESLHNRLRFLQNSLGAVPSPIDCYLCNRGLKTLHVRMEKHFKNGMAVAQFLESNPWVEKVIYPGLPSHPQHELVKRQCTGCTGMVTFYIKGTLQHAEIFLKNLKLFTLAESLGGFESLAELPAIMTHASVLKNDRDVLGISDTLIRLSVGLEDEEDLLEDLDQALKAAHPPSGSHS

[N-]=[N+]=Nc1ccc2c(=O)[nH][nH]c(=O)c2c1 [compound 202, 4-Azidophthalhydrazide]
chemiluminescent response after H2S-mediated reduction [1]: robust chemiluminescent response | chemiluminescence in the absence of H2S [1]: negligible chemiluminescence | Normalized Luminescence (CL/CL0) [2, 11]: 1.7 ± 0.08 | Normalized Luminescence (CL/CL0) ([2]; Reactant Cys): 1.5 ± 0.03 | Normalized Luminescence (CL/CL0) ([2]; Reactant GSH): 3.7 ± 0.9 | Normalized Luminescence (CL/CL0) [2, 12]: 45 ± 3 | Normalized Luminescence (CL/CL0) ([2]; Reactant HNO): 3.3 ± 0.2 | Normalized Luminescence (CL/CL0) ([2]; Reactant Hcy): 3.3 ± 0.5 | Normalized Luminescence (CL/CL0) ([2]; Reactant NAC): 3.3 ± 0.4 | Normalized Luminescence (CL/CL0) ([2]; Reactant NO2): 3.2 ± 0.6 | Normalized Luminescence (CL/CL0) ([2]; Reactant ONOO^−): 4.0 ± 0.2 | Normalized Luminescence (CL/CL0) ([2]; Reactant S2O^2−): 2.2 ± 0.6 | Normalized Luminescence (CL/CL0) ([2]; Reactant SNAP (NO)): 1.5 ± 0.5 | Normalized Luminescence (CL/CL0) ([2]; Reactant SO4^2−): 1.5 ± 0.3 | Normalized Luminescence (CL/CL0) ([2]; Reactant Toluenethiol (TolSH)): 1.9 ± 0.4 | turn on for H2S [2]: 45 fold | Binding Affinities [3]: 260 ± 60 M⁻¹ | chemiluminescent response with CSE in the absence of substrate [4]: no response | chemiluminescent response with CSE and Hcy substrate ([4]; by comparison to CSE alone (p<0.001) or CSE and Hcy inhibited with BCA (p<0.005)): robust response | chemiluminescent response to Hcy, BCA, pyruvate (Pyr) and NH3 ([4]; control experiments without CSE, p<0.005): negligible | Binding Affinities [5]: 3780 ± 370 M⁻¹ | air sensitivity [6]: not air-sensitive | luminescent response in C6 cell lysates lacking CSE substrates (C6 cells): minimal luminescent response | luminescence in C6 cell lysates with Hcy as CSE substrate (C6 cells; p<0.001 by comparison to lysates lacking substrate): significantly increased luminescence | luminescent response in C6 cell lysates with Hcy and BCA (C6 cells; p<0.005): abrogated the luminescent response

O=[N+]([O-])c1ccc(S)c2nonc12 [compound 42, 7-Nitrobenzo[c][1,2,5]oxadiazole-4-thiol]
pKa [7]: 2.6 | ε534 ([8]; λmax 534 nm): 19,000±600 M^−1 cm^−1

O=[N+]([O-])c1ccc(Sc2ccc([N+](=O)[O-])c3nonc23)cc1 [compound 116, 4-Nitro-7-(4-nitrophenylthio)benzo[c][1,2,5]oxadiazole]
absorbance peak at 534 nm after initial incubation ([9]; 3 μM compound, 10 equivalents of H2S, glycine, serine, tyrosine, lysine, glutathione, N-acetyl-L-cysteine): only the H2S samples showed the characteristic absorbance peak at 534 nm | H2S response after incubation of GSH and N-acetylcysteine [9, 13]: somewhat eroded | colorimetric response to H2S after incubation with biological nucleophiles [9, 13]: robust colorimetric response to H2S

Cc1cc(=O)oc2cc(N=[N+]=[N-])ccc12 [C-7Az, 7-azido-4-methylcoumarin]
photostability under continuous exposure [10]: probe photoactivation

O=[N+]([O-])c1ccc(Sc2ccc([N+](=O)[O-])c3nonc23)c2nonc12 [compound 40, bis(7-Nitrobenzo[c][1,2,5]oxadiazol-4-yl)sulfane]
ε413 ([8]; absorbance at 413 nm): 11,700±100

[N-]=[N+]=Nc1cccc2c(=O)[nH][nH]c(=O)c12 [compound 200, 3-Azidophthalhydrazide]
chemiluminescent response after H2S-mediated reduction [1]: robust chemiluminescent response | chemiluminescence in the absence of H2S [1]: negligible chemiluminescence | Normalized Luminescence (CL/CL0) [2, 11]: 6.6 ± 3.2 | Normalized Luminescence (CL/CL0) ([2]; Reactant Cys): 81 ± 5 | Normalized Luminescence (CL/CL0) ([2]; Reactant GSH): 94 ± 12 | Normalized Luminescence (CL/CL0) [2, 12]: 128 ± 16 | Normalized Luminescence (CL/CL0) ([2]; Reactant HNO): 9.1 ± 0.2 | Normalized Luminescence (CL/CL0) ([2]; Reactant Hcy): 57 ± 3 | Normalized Luminescence (CL/CL0) ([2]; Reactant NAC): 37 ± 19 | Normalized Luminescence (CL/CL0) ([2]; Reactant NO2): 0.9 ± 0.2 | Normalized Luminescence (CL/CL0) ([2]; Reactant ONOO^−): 0.6 ± 0.2 | Normalized Luminescence (CL/CL0) ([2]; Reactant S2O^2−): 5.9 ± 1.1 | Normalized Luminescence (CL/CL0) ([2]; Reactant SNAP (NO)): 0.05 ± 0.01 | Normalized Luminescence (CL/CL0) ([2]; Reactant SO4^2−): 0.8 ± 0.3 | turn on for H2S [2]: 128 fold | Binding Affinities [3]: 380 ± 80 M⁻¹ | Binding Affinities [5]: 3640 ± 270 M⁻¹ | air sensitivity [6]: not air-sensitive
